{
  "source": "patent US20240075050A1",
  "about": "“Methods and Compositions for Treating Leucine Rich Repeat Kinase 2 (LRRK2)-Associated Disorder or Condition” (University of Connecticut, priority 2022, published 2024)",
  "key": {"CD68": {"system": "CD68", "experiment": "LPS-induced neuroinflammation in mice, CD68 levels", "type": "in vivo, mouse", "conditions": "21 days; for LPS-induced CD68 levels in SNpc: AICAr 2.4 μg/day/animal, immunostaining", "description": "FIGS. 9A-9F depict that AICAr rescues LPS-induced DA neurodegeneration and inflammation in mice, which acts through LRRK2. FIG. 9A depicts representative images of DAneuron staining. WT and LRRK-KO mice were injected with 1 ul LPS (5 ug/animal) or phosphate buffered saline (PBS) into the substantia nigra pars compacta (SNpc) and administrated with AICAr (2.4 μg/day/animal) or saline to same stereotaxic coordinates using osmotic pumps. After 21 days of injection, DA neurons were stained by anti-tyrosine hydroxylase (TH) antibody. Scale bars, […]. FIG. 9B depicts quantification of TH positive neurons in substantia nigra pars compacta (SNpc) using an unbiased stereological method with stereo investigator software from 7-8 animals per group. FIG. 9C depicts quantification of Niss1-positive neurons in SNpc using an unbiased stereological method with stereo investigator software from 7-8 animals per group. FIG. 9D depicts the CD68 levels in SNpc tissues near the needle sites analyzed by immunostaining. Scale bars, 100 μm. FIG. 9E depicts the CD68 levels in WT and LRRK-KO mice injected with 1 μl LPS (5 μg/animal) or PBS into striatum followed by administration of AICAr (2.4 μg/day/animal) or saline to same stereotaxic coordinates using osmotic pumps. After 21 days of injection, LRRK2 and CD68 expression in striatal tissues near the needle sites was analyzed by Western blot. FIG. 9F depicts quantification of images from (FIG. 9E) using ImageJ software, n=3 animals per group. Data information: Data are mean±SEM. ***p<0.001, ****p<0.0001 by one-way ANOVA followed by a Tukey's post hoc test. ns: not statistically significant.\nStereotaxic intracranial injection. […]\nImmunohistochemistry. […] After antigen retrieval with 10 mM sodium citrate (pH 6.0) and 0.05% Tween-20 at 37° C. for 30 minutes, brain sections were washed in PBS for three times, permeabilized with 0.3% Triton X-100 in PBS, blocked with 10% goat serum in PBS, incubated with anti-tyrosine hydroxylase (TH) antibody overnight at 4° C., and then detected with Biotin-SP goat anti-rabbit IgG antibody at room temperature for 2 hours. […]"}, "LRRK2": {"system": "LRRK2", "experiment": "LRRK2 levels in human fibroblasts, Western blot", "type": "cell-based", "conditions": "1 mM, 48 hours", "description": "FIGS. 2A-2T depicts that AICAr, the precursor of ATIC substrate, regulates LRRK2 expression levels and neuronal toxicity. FIGS. 2A and 2B depict the overexpressed LRRK2 levels in HEK 293T cells upon AICAr treatment. HEK293 cells were transfected with MYC-LRRK2 and treated with or without 1 mM AICAr for 48 hours. LRRK2 levels were analyzed by Western blot. FIGS. 2C and 2D depict the LRRK2 expression levels in SH-SY5Y cells upon AICAr treatment. Human neuroblastoma SH-SY5Y cells were treated with or without 1 mM AICAr for 48 hours. LRRK2 expression levels were analyzed by Western blot. FIGS. 2E and 2F depict the overexpressed (3-glucocerebrosidase (GCase) levels upon AICAr treatment. HEK 293T cells were transfected with V5-GCase and treated with or without 1 mM AICAr for 48 hours. GCase levels were analyzed by Western blot. FIGS. 2G-2N depict the LRRK2 expression levels in primary neurons (FIG. 2G and FIG. 2H), microglia (FIG. 2I and FIG. 2J), astrocytes (FIG. 2K and FIG. 2L) and human fibroblasts (FIG. 2M and FIG. 2N) upon AICAr treatment. Mouse primary cortical neurons, microglia, astrocytes or human fibroblasts from a health control were treated with or without 1 mM AICAr for 48 hours. LRRK2 expression levels were analyzed by Western blot. […] LRRK2 expression levels were analyzed by Western blot. […] Images were quantified by ImageJ software. […]"}},
  "data": [
    {"smiles": "NC(=O)c1ncn([C@@H]2O[C@H](CO)[C@@H](O)[C@H]2O)c1N", "note": "[AICAr, 5-aminoimidazole-4-carboxamide riboside]", "values": [
      {"measurement": "LPS-induced CD68 levels in SNpc", "setting": "CD68; LRRK2 KO mice", "result": "did not significantly rescue"},
      {"measurement": "CD68 levels stimulated by LPS in striatum", "setting": "CD68; WT mice, AICAr 2.4 μg/day/animal into striatum, Western blot", "result": "significantly reduced"},
      {"measurement": "LPS-induced CD68 levels in SNpc", "setting": "CD68; WT mice", "result": "significantly reduced"},
      {"measurement": "LRRK2 levels in fibroblasts", "setting": "LRRK2", "result": "significantly decrease"}
    ]}
  ]
}
